Laboratory results taken from patent publication US20260107941A1.
Values after ≈ are worked out from the molar mass of the structure shown. Values joined by “and” are separate entries in the source; they are usually repeats but may differ in a detail not shown here. Equal values may be shown once.

Assays:
[1] = test system: Fusarium oxysporum; assay: Mycelial growth rate method, toxicity to Fusarium oxysporum; assay type: cell-based; conditions: F. oxysporum, mycelial growth on drug-containing PDA plate, 28° C., 3 d to 7 d
Method: (§1) A PDA solid medium was heated, melted, shaken, and cooled to about 45° C.; a medicinal solution (filtered with a 0.22 μm sterile filter) and the PDA solid medium were mixed, cooled to obtain a drug-containing medium plate with a certain concentration; a phytopathogen cake was placed in the center of the plate, and cultured at 28° C. for 3 d to 7 d; when the hyphae of the phytopathogen in the control group were about to fill the dish, a colony diameter was measured using a cross method, and the mycelial growth inhibition rate and toxicity were calculated. [formula]

[2] = test system: Acidovorax citrulli; assay: Turbidity method, toxicity to Acidovorax citrulli; assay type: cell-based; conditions: Paracidovorax citrulli; A. citrulli; turbidity in NB medium, shaking culture 30° C., 2 d to 3 d
[3] = test system: Alternaria alternata; assay: Mycelial growth rate method, toxicity to Alternaria alternata; assay type: cell-based; conditions: A. alternata, mycelial growth on drug-containing PDA plate, 28° C., 3 d to 7 d
Method: as §1

[4] = test system: Cladosporium fulvum; assay: Mycelial growth rate method, toxicity to Cladosporium fulvum; assay type: cell-based; conditions: Fulvia fulva; C. fulvum; mycelial growth on drug-containing PDA plate, 28° C., 3 d to 7 d
Method: as §1

[5] = test system: Pseudomonas syringae pv. lachrymans; assay: microbe, parasite or virus in culture; assay type: cell-based; conditions: P. syringae pv. lachrymans
[6] = test system: Rhizoctonia solani; assay: Mycelial growth rate method, toxicity to Rhizoctonia solani; assay type: cell-based; conditions: R. solani, mycelial growth on drug-containing PDA plate, 28° C., 3 d to 7 d
Method: as §1

[7] = test system: Erwinia amylovory; assay: Turbidity method, toxicity to Erwinia amylovory; assay type: cell-based; conditions: E. amylovory, turbidity in NB medium, shaking culture 30° C., 2 d to 3 d
[8] = test system: Rhizoctonia solani; assay: Pot method, control effect on Rhizoctonia solani in cotton seedlings; assay type: in vivo; conditions: 50 mL applied on 1 d, 3 d, 5 d, 7 d, after 10 d
Method: A Rhizoctonia solani suspension (10^7 CFU/mL) was added to a matrix at a ratio of 20:1 (w/w), mixed well, germinated cotton seeds were sown into the matrix, and then 50 mL of the medicinal solution was applied on 1 d, 3 d, 5 d, and 7 d separately. After culturing for 10 d, the incidence rate was investigated and the control effect was calculated.

[9] = test system: Colletotrichum orbiculare; assay: Mycelial growth rate method, toxicity to Colletotrichum orbiculare; assay type: cell-based; conditions: C. orbiculare, mycelial growth on drug-containing PDA plate, 28° C., 3 d to 7 d
Method: as §1

[10] = test system: Xanthomonas oryzae; assay: microbe, parasite or virus in culture; assay type: cell-based
[11] = test system: pear fire blight; assay: Field test, control effect on pear fire blight in fragrant pear orchards; conditions: 3 L sprayed per pear tree, 3 times at 7 d/time

CCN(CC)c1ccc(C=O)c(O)c1
EC50 [1]: 40.8 µg/mL (≈ 211 µM) | EC50 [2]: 108 µg/mL (≈ 561 µM) | EC50 [3]: 200 µg/mL (≈ 1040 µM) | EC50 [4]: 113 µg/mL (≈ 583 µM) | EC50 [5]: 114 µg/mL (≈ 592 µM) | EC50 [6]: 14.5 µg/mL (≈ 75 µM) | EC50 [7]: 92.1 µg/mL (≈ 477 µM) | Control effect (%) ([8]; 50 mg/L): 60.66% and 60.66c % | Incidence (%) ([8]; 50 mg/L): 20.00% | Control effect (%) ([8]; 100 mg/L): 77.05% and 77.05b % | Incidence (%) ([8]; 100 mg/L): 11.67% | Control effect (%) ([8]; 150 mg/L): 86.89% and 86.89a % | Incidence (%) ([8]; 150 mg/L): 6.67% | EC50 [9]: 93.8 µg/mL (≈ 485 µM) | EC50 [10]: 136 µg/mL (≈ 706 µM) | Control effect (%) 7 d after last dose ([11]; 200 mg/L): 40.85c % | Control effect (%) 14 d after last dose ([11]; 200 mg/L): 35.14c % | Control effect (%) 7 d after last dose ([11]; 300 mg/L): 50.37% and 50.37b % | Control effect (%) 14 d after last dose ([11]; 300 mg/L): 44.71% and 44.71b % | Control effect (%) 7 d after last dose ([11]; 400 mg/L): 58.13% and 58.13a % | Control effect (%) 14 d after last dose ([11]; 400 mg/L): 50.81% and 50.81a %

COC(=O)Nc1nc2ccccc2[nH]1 [carbendazim, reference compound]
Control effect (%) ([8]; 100 mg/L): 49.18d % | Incidence (%) ([8]; 100 mg/L): 25.83%

zhongshengmycin [reference compound]
Control effect (%) 7 d after last dose ([11]; 50 mg/L): 53.06ab % | Control effect (%) 14 d after last dose ([11]; 50 mg/L): 47.36b %
